Data: ChEMBL document CHEMBL3046479, “Preparation and antimicrobial activity evaluation of some new bi- and triheterocyclic azoles” (2013)
Converted amounts (≈) assume the structure as drawn. The source made the active and inactive calls. No cut-off for these calls is given here.

Tests used:
Type in all cases: functional
[1] = test system: Bacillus cereus; test: Antimicrobial activity against Bacillus cereus 709 Roma assessed as growth inhibition after 18-24 hr by broth double microdilution method
[2] = test system: Mycolicibacterium smegmatis; test: Antimicrobial activity against Mycobacterium smegmatis ATCC 607 assessed as growth inhibition after 48-72 hr by broth double microdilution method
[3] = test system: Candida albicans; test: Antimicrobial activity against Candida albicans ATCC 60193 assessed as growth inhibition after 18-24 hr by broth double microdilution method
[4] = test system: Yersinia pseudotuberculosis; test: Antimicrobial activity against Yersinia pseudotuberculosis ATCC 911 assessed as growth inhibition after 18-24 hr by broth double microdilution method
[5] = test system: Escherichia coli; test: Antimicrobial activity against Escherichia coli ATCC 35218 assessed as growth inhibition after 18-24 hr by broth double microdilution method
[6] = test system: Saccharomyces cerevisiae; test: Antimicrobial activity against Saccharomyces cerevisiae RSKK 251 assessed as growth inhibition after 18-24 hr by broth double microdilution method
[7] = test system: Enterococcus faecalis; test: Antimicrobial activity against Enterococcus faecalis ATCC 29212 assessed as growth inhibition after 18-24 hr by broth double microdilution method
[8] = test system: Pseudomonas aeruginosa; test: Antimicrobial activity against Pseudomonas aeruginosa ATCC 10145 assessed as growth inhibition after 18-24 hr by broth double microdilution method
[9] = test system: Staphylococcus aureus; test: Antimicrobial activity against Staphylococcus aureus ATCC 25923 assessed as growth inhibition after 18-24 hr by broth double microdilution method
[10] = test system: Listeria monocytogenes; test: Antimicrobial activity against Listeria monocytogenes ATCC 43251 assessed as growth inhibition after 18-24 hr by broth double microdilution method

SMILES | MIC [1] | MIC [2] | MIC [3] | MIC [4] | MIC [5] | MIC [6] | MIC [7] | MIC [8] | MIC [9] | MIC [10]
Cc1nn(-c2ccc(/N=C/c3ccc(Br)cc3)cc2F)c(=O)n1CCCn1ccnc1 | inactive | 0.24 µg/mL (≈ 0.497 µM) | inactive | inactive | inactive | inactive | inactive | inactive | inactive | inactive
Cc1nn(CN2CCCCC2)c(=O)n1CCCn1ccnc1 | < 0.12 µg/mL | 3.9 µg/mL (≈ 12.8 µM) | 15.6 µg/mL (≈ 51.2 µM) | < 0.12 µg/mL | < 0.12 µg/mL | 3.9 µg/mL (≈ 12.8 µM) | < 0.12 µg/mL | < 0.12 µg/mL | < 0.12 µg/mL | < 0.12 µg/mL
COc1ccc(/C=N/NC(=O)Cn2nc(C)n(/N=C/c3ccncc3)c2=O)cc1O | inactive | inactive | 125 µg/mL (≈ 305 µM) | inactive | inactive | inactive | inactive | inactive | inactive | inactive
Cc1nn(-c2ccc(N)cc2F)c(=O)[nH]1 | inactive | 31.3 µg/mL (≈ 150 µM) | 125 µg/mL (≈ 600 µM) | inactive | inactive | 500 µg/mL (≈ 2400 µM) | inactive | inactive | inactive | inactive
